GI50 and IC50 data for 22 molecules are collected here from US8309546B2, “Morpholinopurine derivatives” (Daiichi Sankyo Company, Limited, priority 2008, dated 2012).

The test system of test [1] is human colon cancer cell strain HT29. The test is described as follows: Cell growth inhibition test (MTT), HT29. The format is cell-based. To be noted: HT-29, 72 h, HT29, 3 days culture, read-out: concentration exhibiting anti-cell effect (GI50). The gist of the method: (§1)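 Each cell strain is exposed to serially diluted compound for 3 days (37° C, 5% CO2), added one day after seeding at 5000 (AN3CA, HT29) or 1000 (IGROV1) cells/well. Living cells are quantified by MTT reduction over 4 h, absorbance at 540 nm, giving GI50 at 50% growth rate.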

Test [2] addresses T1, human mTOR (His-tagged mTOR (1362C)) (Homo sapiens, UniProt P42345).
T1 construct: the 1362 to 2549 amino acid portion on the C terminus side of human mTOR; His tag (N); made in house
The test is described as follows: mTOR kinase activity inhibition assay. The format is biochemical. The following applies: HTRF, read-out: IC50 against mTOR. The gist of the method: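 Crude His-tagged mTOR (aa 1362–2549) from stable HEK293 cells, with 8 μg/ml biotinylated peptide in 50 mM HEPES pH 7.5, 20 mM MnCl2; compound diluted in 20 μM ATP solution, reaction 3 h at room temperature. Phospho-peptide detected by HTRF (anti-phospho-S6K Thr389 cryptate/streptavidin-XL665, overnight at 4°C), 665/620 nm ratio. IC50 derived from curve fit of % inhibition.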
For orientation: In TR-FRET formats the signal depends on donor and acceptor labels being close together.

Test [3] relates to human endometrial cancer cell strain AN3CA. The test is described as follows: Cell growth inhibition test (MTT), AN3CA. To be noted: AN3-CA, 72 h, 3 days culture, read-out: concentration exhibiting anti-cell effect (GI50). The test is classed as cell-based. The gist of the method:
as §1

SMILES strings stand for the structures.

T1 sequence (P42345 1362-2549): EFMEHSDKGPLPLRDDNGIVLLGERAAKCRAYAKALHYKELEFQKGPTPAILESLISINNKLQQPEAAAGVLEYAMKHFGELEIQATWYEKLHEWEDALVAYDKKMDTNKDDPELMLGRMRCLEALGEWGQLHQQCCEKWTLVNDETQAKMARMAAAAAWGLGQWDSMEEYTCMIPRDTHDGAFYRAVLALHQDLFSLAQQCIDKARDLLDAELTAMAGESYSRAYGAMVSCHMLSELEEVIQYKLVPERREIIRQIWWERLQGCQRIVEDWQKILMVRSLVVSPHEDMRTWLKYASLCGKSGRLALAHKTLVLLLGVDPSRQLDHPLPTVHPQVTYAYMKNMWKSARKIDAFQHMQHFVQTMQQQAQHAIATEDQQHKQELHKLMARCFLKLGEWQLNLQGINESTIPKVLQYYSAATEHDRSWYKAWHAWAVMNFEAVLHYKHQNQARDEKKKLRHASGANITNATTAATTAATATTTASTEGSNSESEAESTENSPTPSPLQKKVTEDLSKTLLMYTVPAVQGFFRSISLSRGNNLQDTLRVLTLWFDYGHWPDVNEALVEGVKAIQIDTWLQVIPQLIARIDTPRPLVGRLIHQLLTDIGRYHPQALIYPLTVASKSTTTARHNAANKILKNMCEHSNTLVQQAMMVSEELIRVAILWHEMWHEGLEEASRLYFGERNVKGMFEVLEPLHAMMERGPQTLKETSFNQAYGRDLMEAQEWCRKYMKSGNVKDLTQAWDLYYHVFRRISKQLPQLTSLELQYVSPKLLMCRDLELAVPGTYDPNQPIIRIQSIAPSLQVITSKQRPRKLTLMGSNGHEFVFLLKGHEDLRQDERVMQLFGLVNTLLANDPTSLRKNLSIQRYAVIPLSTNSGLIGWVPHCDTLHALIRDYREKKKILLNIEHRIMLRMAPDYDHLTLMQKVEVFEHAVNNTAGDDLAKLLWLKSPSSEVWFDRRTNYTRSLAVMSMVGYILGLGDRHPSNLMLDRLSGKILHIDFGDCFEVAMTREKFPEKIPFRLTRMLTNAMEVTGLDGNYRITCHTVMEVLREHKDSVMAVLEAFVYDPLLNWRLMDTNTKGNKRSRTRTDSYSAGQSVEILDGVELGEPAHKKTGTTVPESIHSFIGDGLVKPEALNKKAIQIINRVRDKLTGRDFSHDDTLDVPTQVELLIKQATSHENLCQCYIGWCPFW

As a reminder, the IC50 is the concentration that inhibits the measured activity by half. As to `CS(=O)(=O)N1CCN(c2nc3c(N4CCOCC4)nc(-c4cnc(N)nc4)nc3n2CC(F)(F)F)CC1` [Example 8, 5-{8-[4-(Methylsulfonyl)piperazin-1-yl]-6-morpholin-4-yl-9-(2,2,2-trifluoroethyl)-9H-purin-2-yl}pyrimidin-2-amine], the GI50 in test [1] and in test [3] was at most 5 µM each time. Moreover, the IC50 in test [2] was under 0.01 µM.

`CC(C)Cn1c(N2CCN(C=O)[C@H](C)C2)nc2c(N3CCOCC3)nc(-c3cnc(N)nc3)nc21` [Example 100, (2R)-4-[2-(2-Aminopyrimidin-5-yl)-9-isobutyl-6-morpholin-4-yl-9H-purin-8-yl]-2-methylpiperazine-1-carboaldehyde]: the GI50 in test [1] and in test [3] was at most 5 µM in each case. The IC50 in test [2] was in the range of 0.01 to 0.03 µM.

On to `CC(=O)N1CCN(c2nc3c(N4CCOCC4)nc(-c4cnc(N)nc4)nc3n2CC(F)(F)F)C[C@H]1C` [Example 60, 5-{8-[(3R)-4-Acetyl-3-methylpiperazin-1-yl]-6-morpholin-4-yl-9-(2,2,2-trifluoroethyl)-9H-purin-2-yl}pyrimidin-2-amine], for which the GI50 in test [1] and in test [3] was at most 5 µM throughout. Also, the IC50 in test [2] is under 0.01 µM.

On to `CS(=O)(=O)C1CCN(c2nc3c(N4CCOCC4)nc(-c4cnc(N)nc4)nc3n2CC(F)(F)F)CC1` [Example 57, 5-{8-[4-(Methylsulfonyl)piperidin-1-yl]-6-morpholin-4-yl-9-(2,2,2-trifluoroethyl)-9H-purin-2-yl}pyrimidin-2-amine], for which the GI50 in test [1] and in test [3] was at most 5 µM each time. Besides, the IC50 in test [2] is under 0.01 µM.

As for `CC(=O)N1[C@H](C)CN(c2nc3c(N4CCOCC4)nc(-c4cnc(N)nc4)nc3n2CC(F)(F)F)C[C@@H]1C` [Example 115, 5-[8-(4-Acetyl-cis-3,5-dimethylpiperazin-1-yl)-6-morpholin-4-yl-9-(2,2,2-trifluoroethyl)-9H-purin-2-yl]pyrimidin-2-amine], the GI50 in test [1] and in test [3] was at most 5 µM throughout. Besides, the IC50 in test [2] is under 0.01 µM.

In the case of `CC(=O)N1CCN(c2nc3c(N4CCOC[C@@H]4C)nc(-c4cnc(N)nc4C)nc3n2CC2CC2)CC1` [Example 128, 5-{8-(4-acetylpiperazin-1-yl)-9-(cyclopropylmethyl)-6-[(3S)-3-methylmorpholin-4-yl]-9H-purin-2-yl}-4-methylpyrimidin-2-amine], the GI50 in test [1] and in test [3] was at most 5 µM each time. In test [2], the IC50 lay in the range of 0.1 to 0.5 µM.

For the molecule `CC[C@H]1CN(c2nc3c(N4CCOCC4)nc(-c4cnc(N)nc4)nc3n2CC(F)(F)F)CCN1S(C)(=O)=O` [Example 76, 5-{8-[(3S)-3-Ethyl-4-(methylsulfonyl)piperazin-1-yl]-6-morpholin-4-yl-9-(2,2,2-trifluoroethyl)-9H-purin-2-yl}pyrimidin-2-amine], the GI50 in test [1] and in test [3] was at most 5 µM each time. Moreover, in test [2], the IC50 is under 0.01 µM.

Take `C[C@H](O)C(=O)N1CCN(c2nc3c(N4CCOCC4)nc(-c4cnc(N)nc4)nc3n2CC(F)(F)F)C[C@@H]1C` [Example 109, (2S)-1-{(2S)-4-[2-(2-Aminopyrimidin-5-yl)-6-morpholin-4-yl-9-(2,2,2-trifluoroethyl)-9H-purin-8-yl]-2-methylpiperazin-1-yl}-1-oxopropan-2-ol]: the GI50 in test [1] and in test [3] was at most 5 µM each time. The IC50 in test [2] is under 0.01 µM.

For `CC(C)Cn1c(N2CCN(C(=O)C[C@H](C)O)[C@@H](C)C2)nc2c(N3CCOCC3)nc(-c3cnc(N)nc3)nc21` [Example 85, (2S)-4-{(2S)-4-[2-(2-Aminopyrimidin-5-yl)-9-isobutyl-6-morpholin-4-yl-9H-purin-8-yl]-2-methylpiperazin-1-yl}-4-oxobutan-2-ol], the GI50 in test [1] and in test [3] was at most 5 µM throughout. In addition, the IC50 in test [2] was under 0.01 µM.

Regarding `C[C@@H]1CN(c2nc3c(N4CCOCC4)nc(-c4cnc(N)nc4)nc3n2CC(F)(F)F)C[C@H](C)N1C=O` [Example 116, 4-[2-(2-Aminopyrimidin-5-yl)-6-morpholin-4-yl-9-(2,2,2-trifluoroethyl)-9H-purin-8-yl]-cis-2,6-dimethylpiperazine-1-carboaldehyde], the GI50 in test [1] and in test [3] was at most 5 µM each time. The IC50 in test [2] is under 0.01 µM.

In the case of `Nc1ncc(-c2nc(N3CCOCC3)c3nc(N4CCN(C(=O)CO)CC4)n(CC(F)(F)F)c3n2)cn1` [Example 67, 2-{4-[2-(2-Aminopyrimidin-5-yl)-6-morpholin-4-yl-9-(2,2,2-trifluoroethyl)-9H-purin-8-yl]piperazin-1-yl}-2-oxoethanol], the GI50 in test [1] and in test [3] was at most 5 µM in each case. Besides, the IC50 in test [2] is under 0.01 µM.

Take `CC[C@H]1CN(c2nc3c(N4CCOCC4)nc(-c4cnc(N)nc4)nc3n2CC(F)(F)F)CCN1C(C)=O` [Example 75, 5-{8-[(3S)-4-Acetyl-3-ethylpiperazin-1-yl]-6-morpholin-4-yl-9-(2,2,2-trifluoroethyl)-9H-purin-2-yl}pyrimidin-2-amine]: the GI50 in test [1] and in test [3] was at most 5 µM in each case. For the same molecule, in test [2], the IC50 was under 0.01 µM.

With `CC(C)Cn1c(N2CCN(S(C)(=O)=O)[C@H](C)C2)nc2c(N3CCOCC3)nc(-c3cnc(N)nc3)nc21` [Example 54, 5-{9-Isobutyl-8-[(3R)-3-methyl-4-(methylsulfonyl)piperazin-1-yl]-6-morpholin-4-yl-9H-purin-2-yl}pyrimidin-2-amine], the GI50 in test [1] and in test [3] was at most 5 µM throughout. Further, the IC50 in test [2] was 0.03 to 0.1 µM.

In the case of `CC(C)Cn1c(N2CCN(C(=O)CO)CC2)nc2c(N3CCOCC3)nc(-c3cnc(N)nc3)nc21` [Example 89, 2-{4-[2-(2-Aminopyrimidin-5-yl)-9-isobutyl-6-morpholin-4-yl-9H-purin-8-yl]piperazin-1-yl}-2-oxoethanol], the GI50 in test [1] and in test [3] was at most 5 µM in each case. Also, the IC50 in test [2] fell in the range of 0.01 to 0.03 µM.

`C[C@H](O)CC(=O)N1CCN(c2nc3c(N4CCOCC4)nc(-c4cnc(N)nc4)nc3n2CC(F)(F)F)CC1` [Example 69, (2S)-4-{4-[2-(2-Aminopyrimidin-5-yl)-6-morpholin-4-yl-9-(2,2,2-trifluoroethyl)-9H-purin-8-yl]piperazin-1-yl}-4-oxobutan-2-ol]: the GI50 in test [1] and in test [3] was at most 5 µM each time. Further, the IC50 in test [2] was under 0.01 µM.

Consider `C[C@H]1CN(c2nc3c(N4CCOCC4)nc(-c4cnc(N)nc4)nc3n2CC(F)(F)F)CCN1S(C)(=O)=O` [Example 62, 5-{8-[(3S)-3-Methyl-4-(methylsulfonyl)piperazin-1-yl]-6-morpholin-4-yl-9-(2,2,2-trifluoroethyl)-9H-purin-2-yl}pyrimidin-2-amine], for which the GI50 in test [1] and in test [3] was at most 5 µM each time. Besides, the IC50 in test [2] is under 0.01 µM.

Take `CC(C)Cn1c(N2CCN(C(=O)[C@H](C)O)CC2)nc2c(N3CCOC[C@@H]3C)nc(-c3cnc(N)nc3)nc21` [Example 131, (2S)-1-(4-{2-(2-Aminopyrimidin-5-yl)-9-isobutyl-6-[(3S)-3-methylmorpholin-4-yl]-9H-purin-8-yl}piperazin-1-yl)-1-oxopropan-2-ol]: the GI50 in test [1] and in test [3] was at most 5 µM in each case. For the same molecule, the IC50 in test [2] lay within 0.01 to 0.03 µM.

For `CC(C)Cn1c(N2CCN(S(C)(=O)=O)CC2)nc2c(N3CCOCC3)nc(-c3cnc(N)nc3)nc21` [Example 1, 5-{9-Isobutyl-8-[4-(methylsulfonyl)piperazin-1-yl]-6-morpholin-4-yl-9H-purin-2-yl}pyrimidin-2-amine], the GI50 in test [1] and in test [3] was at most 5 µM in each case. In test [2], the IC50 lay within 0.01 to 0.03 µM.

As to `CNc1ncc(-c2nc(N3CCOCC3)c3nc(N4CCN(S(C)(=O)=O)[C@@H](C)C4)n(CC(F)(F)F)c3n2)cn1` [Example 105, N-Methyl-5-{8-[(3S)-3-methyl-4-(methylsulfonyl)piperazin-1-yl]-6-morpholin-4-yl-9-(2,2,2-trifluoroethyl)-9H-purin-2-yl}pyrimidin-2-amine], the GI50 in test [1] and in test [3] was at most 5 µM each time. Further, the concentration for half-maximal inhibition (IC50) in test [2] is under 0.01 µM.

In the case of `CC(C)Cn1c(N2CCN(C(=O)C[C@@H](C)O)CC2)nc2c(N3CCOCC3)nc(-c3cnc(N)nc3)nc21` [Example 81, (2R)-4-{4-[2-(2-Aminopyrimidin-5-yl)-9-isobutyl-6-morpholin-4-yl-9H-purin-8-yl]piperazin-1-yl}-4-oxobutan-2-ol], the GI50 in test [1] and in test [3] was at most 5 µM each time. In addition, the IC50 in test [2] lay within 0.01 to 0.03 µM.

Take `CC(C)Cn1c(N2CCN(C=O)[C@@H](C)C2)nc2c(N3CCOCC3)nc(-c3cnc(N)nc3)nc21` [Example 102, (2S)-4-[2-(2-Aminopyrimidin-5-yl)-9-isobutyl-6-morpholin-4-yl-9H-purin-8-yl]-2-methylpiperazine-1-carboaldehyde]: the GI50 in test [1] and in test [3] was at most 5 µM in each case. The IC50 in test [2] is under 0.01 µM.

Turning to `C[C@H]1CN(c2nc3c(N4CCOCC4)nc(-c4cnc(N)nc4)nc3n2CC(F)(F)F)CCN1C=O` [Example 111, (2S)-4-[2-(2-Aminopyrimidin-5-yl)-6-morpholin-4-yl-9-(2,2,2-trifluoroethyl)-9H-purin-8-yl]-2-methylpiperazine-1-carboaldehyde], the GI50 in test [1] and in test [3] was at most 5 µM throughout. Moreover, the IC50 in test [2] was under 0.01 µM.
